{"source": "ChEMBL document CHEMBL5678810", "key": {"[1]": {"biological_target": "Casein kinase I isoform delta (Homo sapiens) (UniProt P48730)", "sequence (P48730 whole entry, looked up, the tested form may be a part, canonical isoform)": "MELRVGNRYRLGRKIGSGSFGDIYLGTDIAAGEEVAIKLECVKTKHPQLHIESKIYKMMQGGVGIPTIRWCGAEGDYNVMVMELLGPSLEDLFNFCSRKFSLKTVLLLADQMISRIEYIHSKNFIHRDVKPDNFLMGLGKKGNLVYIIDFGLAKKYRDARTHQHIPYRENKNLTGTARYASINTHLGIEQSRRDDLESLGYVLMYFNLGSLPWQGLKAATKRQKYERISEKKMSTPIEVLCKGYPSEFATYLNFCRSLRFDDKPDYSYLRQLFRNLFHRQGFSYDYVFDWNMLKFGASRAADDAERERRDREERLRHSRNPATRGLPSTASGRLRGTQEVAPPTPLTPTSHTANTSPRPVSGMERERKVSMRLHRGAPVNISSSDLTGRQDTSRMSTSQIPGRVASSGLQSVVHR", "test": "Inhibition of T7 bacteriophage fused human CSNK1D at 10 uM by KINOMEscan analysis relative to control; values are per cent of control"}, "[2]": {"biological_target": "Platelet-derived growth factor receptor beta (Homo sapiens) (UniProt P09619)", "test": "Inhibition of T7 bacteriophage fused human PDGFRB at 10 uM by KINOMEscan analysis relative to control"}, "[3]": {"biological_target": "Activin receptor type-1-like (Homo sapiens) (UniProt P37023)", "test": "Inhibition of T7 bacteriophage fused human ACVRL1 at 10 uM by KINOMEscan analysis relative to control"}, "[4]": {"tested_on": "Mast/stem cell growth factor receptor Kit (Homo sapiens), P10721 [D816V]", "sequence (P10721 whole entry D816V, the tested form may be a part)": "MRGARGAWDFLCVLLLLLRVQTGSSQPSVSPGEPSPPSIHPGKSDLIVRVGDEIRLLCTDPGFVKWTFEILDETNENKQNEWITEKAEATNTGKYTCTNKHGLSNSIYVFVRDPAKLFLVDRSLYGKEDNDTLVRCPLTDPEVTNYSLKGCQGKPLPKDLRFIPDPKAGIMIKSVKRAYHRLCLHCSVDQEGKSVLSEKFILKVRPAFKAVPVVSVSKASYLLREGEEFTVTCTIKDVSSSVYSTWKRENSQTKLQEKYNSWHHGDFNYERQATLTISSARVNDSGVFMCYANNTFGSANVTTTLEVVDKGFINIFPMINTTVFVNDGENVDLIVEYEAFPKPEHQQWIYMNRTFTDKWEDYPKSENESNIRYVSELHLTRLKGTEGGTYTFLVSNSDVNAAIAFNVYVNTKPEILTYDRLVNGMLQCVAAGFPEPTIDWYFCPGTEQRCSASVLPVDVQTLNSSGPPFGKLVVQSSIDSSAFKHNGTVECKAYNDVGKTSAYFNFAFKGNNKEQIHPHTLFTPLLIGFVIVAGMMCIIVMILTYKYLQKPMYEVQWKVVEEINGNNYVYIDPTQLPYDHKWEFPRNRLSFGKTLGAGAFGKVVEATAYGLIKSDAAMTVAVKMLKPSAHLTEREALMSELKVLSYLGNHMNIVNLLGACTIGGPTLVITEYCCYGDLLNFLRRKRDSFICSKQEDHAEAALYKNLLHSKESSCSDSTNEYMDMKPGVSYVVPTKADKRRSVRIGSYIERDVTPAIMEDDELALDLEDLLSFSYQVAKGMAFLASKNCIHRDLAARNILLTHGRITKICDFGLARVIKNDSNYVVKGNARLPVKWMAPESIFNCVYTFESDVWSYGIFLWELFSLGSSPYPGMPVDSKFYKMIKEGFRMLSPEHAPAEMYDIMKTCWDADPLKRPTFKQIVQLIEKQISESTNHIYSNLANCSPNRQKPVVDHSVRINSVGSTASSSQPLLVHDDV", "test": "Inhibition of T7 bacteriophage fused human KIT D816V mutant at 10 uM by KINOMEscan analysis relative to control"}, "[5]": {"biological_target": "Phosphatidylinositol 5-phosphate 4-kinase type-2 gamma (Homo sapiens) (UniProt Q8TBX8)", "test": "Inhibition of T7 bacteriophage fused human PIP5K2C at 10 uM by KINOMEscan analysis relative to control"}, "[6]": {"biological_target": "Tyrosine-protein kinase receptor UFO (Homo sapiens) (UniProt P30530)", "sequence (P30530 whole entry, the tested form may be a part)": "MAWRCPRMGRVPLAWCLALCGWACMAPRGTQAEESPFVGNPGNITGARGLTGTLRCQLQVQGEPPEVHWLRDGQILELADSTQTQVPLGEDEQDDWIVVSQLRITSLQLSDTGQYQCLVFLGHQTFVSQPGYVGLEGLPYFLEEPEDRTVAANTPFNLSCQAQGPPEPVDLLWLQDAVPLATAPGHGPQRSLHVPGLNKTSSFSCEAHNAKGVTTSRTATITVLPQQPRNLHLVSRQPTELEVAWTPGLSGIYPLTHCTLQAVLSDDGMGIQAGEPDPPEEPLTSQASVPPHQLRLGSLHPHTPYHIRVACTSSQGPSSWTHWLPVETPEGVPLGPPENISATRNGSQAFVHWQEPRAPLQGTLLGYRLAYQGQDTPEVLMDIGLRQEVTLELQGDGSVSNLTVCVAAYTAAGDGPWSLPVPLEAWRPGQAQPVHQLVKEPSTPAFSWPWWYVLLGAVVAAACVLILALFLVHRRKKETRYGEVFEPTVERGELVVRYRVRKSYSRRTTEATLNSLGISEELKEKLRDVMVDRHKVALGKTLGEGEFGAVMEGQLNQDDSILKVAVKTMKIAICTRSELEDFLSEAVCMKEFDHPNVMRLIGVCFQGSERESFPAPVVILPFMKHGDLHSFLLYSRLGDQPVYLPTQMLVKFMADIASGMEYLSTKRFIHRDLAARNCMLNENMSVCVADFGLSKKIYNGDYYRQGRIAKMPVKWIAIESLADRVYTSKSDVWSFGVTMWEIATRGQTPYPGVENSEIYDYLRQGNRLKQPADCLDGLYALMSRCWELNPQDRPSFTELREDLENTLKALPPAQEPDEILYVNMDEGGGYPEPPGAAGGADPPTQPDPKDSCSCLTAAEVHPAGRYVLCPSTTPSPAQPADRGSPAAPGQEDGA", "test": "Inhibition of T7 bacteriophage fused human AXL at 10 uM by KINOMEscan analysis relative to control"}, "[7]": {"tested_on": "Tyrosine-protein kinase ABL1 (Homo sapiens), P00519 [M351T]", "test": "Inhibition of T7 bacteriophage fused human phosphorylated ABL1 M351T mutant at 10 uM by KINOMEscan analysis relative to control"}, "[8]": {"biological_target": "Tyrosine-protein kinase Lck (Homo sapiens) (UniProt P06239)", "sequence (P06239 2-509 limits assumed)": "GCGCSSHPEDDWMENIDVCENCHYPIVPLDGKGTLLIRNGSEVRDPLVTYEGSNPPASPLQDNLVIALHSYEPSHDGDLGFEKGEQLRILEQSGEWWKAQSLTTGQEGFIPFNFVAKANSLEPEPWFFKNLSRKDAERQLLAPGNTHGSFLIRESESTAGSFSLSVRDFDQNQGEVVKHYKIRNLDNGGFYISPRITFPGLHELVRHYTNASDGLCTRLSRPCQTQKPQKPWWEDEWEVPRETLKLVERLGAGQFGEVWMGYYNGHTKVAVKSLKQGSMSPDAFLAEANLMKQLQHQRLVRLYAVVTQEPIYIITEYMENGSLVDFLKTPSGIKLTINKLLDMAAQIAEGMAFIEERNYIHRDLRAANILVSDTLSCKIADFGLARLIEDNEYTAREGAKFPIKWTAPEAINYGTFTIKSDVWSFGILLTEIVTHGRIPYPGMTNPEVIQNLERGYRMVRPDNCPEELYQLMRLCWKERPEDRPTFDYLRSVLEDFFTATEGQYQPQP", "test": "Inhibition of T7 bacteriophage fused human LCK at 10 uM by KINOMEscan analysis relative to control"}, "[9]": {"biological_target": "Serine/threonine-protein kinase PknB (Mycobacterium tuberculosis) (UniProt P9WI81)", "test": "Inhibition of T7 bacteriophage fused […] tuberculosis PKNB at 10 uM by KINOMEscan analysis relative to control"}, "[10]": {"biological_target": "Serine/threonine-protein kinase BRSK1 (Homo sapiens) (UniProt Q8TDC3)", "test": "Inhibition of T7 bacteriophage fused human BRSK1 at 10 uM by KINOMEscan analysis relative to control"}, "[11]": {"biological_target": "Proto-oncogene tyrosine-protein kinase receptor Ret (Homo sapiens) (UniProt P07949)", "sequence (P07949 whole entry, the tested form may be a part)": "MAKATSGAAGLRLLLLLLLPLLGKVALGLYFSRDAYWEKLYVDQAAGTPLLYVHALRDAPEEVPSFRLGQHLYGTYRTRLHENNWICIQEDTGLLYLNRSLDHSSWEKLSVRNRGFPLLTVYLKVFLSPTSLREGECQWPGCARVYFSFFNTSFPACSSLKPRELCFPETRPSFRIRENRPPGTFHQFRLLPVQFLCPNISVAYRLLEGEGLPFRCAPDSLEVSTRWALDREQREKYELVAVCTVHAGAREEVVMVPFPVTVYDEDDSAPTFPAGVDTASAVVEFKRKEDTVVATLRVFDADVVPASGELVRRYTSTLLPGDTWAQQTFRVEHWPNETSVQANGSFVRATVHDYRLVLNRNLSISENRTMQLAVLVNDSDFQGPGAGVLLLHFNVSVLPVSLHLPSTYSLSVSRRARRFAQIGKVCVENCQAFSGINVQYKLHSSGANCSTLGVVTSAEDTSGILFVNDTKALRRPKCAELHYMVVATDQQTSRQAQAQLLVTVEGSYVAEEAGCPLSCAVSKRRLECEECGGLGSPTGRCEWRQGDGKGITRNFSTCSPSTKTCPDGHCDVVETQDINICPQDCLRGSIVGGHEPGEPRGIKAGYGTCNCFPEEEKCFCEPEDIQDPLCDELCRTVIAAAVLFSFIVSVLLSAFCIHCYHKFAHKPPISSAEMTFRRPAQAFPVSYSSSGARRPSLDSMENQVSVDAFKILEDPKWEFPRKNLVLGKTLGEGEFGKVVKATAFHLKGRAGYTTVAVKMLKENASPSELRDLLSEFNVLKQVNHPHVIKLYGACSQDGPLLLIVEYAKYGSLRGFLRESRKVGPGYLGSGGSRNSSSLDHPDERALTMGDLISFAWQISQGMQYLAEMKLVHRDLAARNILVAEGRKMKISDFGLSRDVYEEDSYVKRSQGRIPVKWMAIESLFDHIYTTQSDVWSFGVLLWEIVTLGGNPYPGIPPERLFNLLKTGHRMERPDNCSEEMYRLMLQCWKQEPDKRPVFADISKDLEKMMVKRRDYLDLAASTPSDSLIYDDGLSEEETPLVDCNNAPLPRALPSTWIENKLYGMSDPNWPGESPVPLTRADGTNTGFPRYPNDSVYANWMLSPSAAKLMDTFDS", "test": "Inhibition of T7 bacteriophage fused human RET at 10 uM by KINOMEscan analysis relative to control"}, "[12]": {"tested_on": "Phosphatidylinositol 4,5-bisphosphate 3-kinase catalytic subunit alpha isoform (Homo sapiens), P42336 [Q546K]", "sequence (P42336 whole entry Q546K, the tested form may be a part, canonical isoform)": "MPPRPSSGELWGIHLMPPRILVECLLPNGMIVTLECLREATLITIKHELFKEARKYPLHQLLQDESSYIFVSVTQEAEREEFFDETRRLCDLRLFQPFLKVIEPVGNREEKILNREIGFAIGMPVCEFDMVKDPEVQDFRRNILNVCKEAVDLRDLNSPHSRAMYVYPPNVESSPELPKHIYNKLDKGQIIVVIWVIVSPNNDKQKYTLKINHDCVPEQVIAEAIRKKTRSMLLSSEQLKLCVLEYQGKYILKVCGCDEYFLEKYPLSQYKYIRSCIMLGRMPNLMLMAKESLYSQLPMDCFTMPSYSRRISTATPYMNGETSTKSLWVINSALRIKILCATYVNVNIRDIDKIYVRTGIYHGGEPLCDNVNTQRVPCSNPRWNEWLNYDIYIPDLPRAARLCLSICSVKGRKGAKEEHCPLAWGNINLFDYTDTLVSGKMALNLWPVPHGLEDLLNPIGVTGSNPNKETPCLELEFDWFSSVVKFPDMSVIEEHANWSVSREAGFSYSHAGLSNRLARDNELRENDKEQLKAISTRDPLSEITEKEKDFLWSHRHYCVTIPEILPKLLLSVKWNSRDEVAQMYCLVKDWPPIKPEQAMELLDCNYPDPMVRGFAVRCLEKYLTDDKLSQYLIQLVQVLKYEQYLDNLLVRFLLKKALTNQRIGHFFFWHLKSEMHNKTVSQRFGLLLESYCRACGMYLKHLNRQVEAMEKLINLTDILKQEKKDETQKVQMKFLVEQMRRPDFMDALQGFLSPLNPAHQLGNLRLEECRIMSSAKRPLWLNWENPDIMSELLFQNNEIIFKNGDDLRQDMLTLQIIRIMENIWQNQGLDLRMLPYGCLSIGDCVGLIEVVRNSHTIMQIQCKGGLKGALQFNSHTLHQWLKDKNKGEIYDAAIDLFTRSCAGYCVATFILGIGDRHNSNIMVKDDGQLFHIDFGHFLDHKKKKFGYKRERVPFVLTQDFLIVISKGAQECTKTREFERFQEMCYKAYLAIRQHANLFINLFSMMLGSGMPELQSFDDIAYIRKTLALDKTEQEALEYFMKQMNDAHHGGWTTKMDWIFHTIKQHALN", "test": "Inhibition of T7 bacteriophage fused human PIK3CA Q546K mutant at 10 uM by KINOMEscan analysis relative to control"}}, "data": [{"smiles": "COc1cc(N2CCC(N3CCN(C)CC3)CC2)ccc1Nc1ncc2c(n1)N(C)c1ccccc1C(=O)N2C", "values": [{"measurement": "residual activity", "setting": "[1]", "result": 81, "unit": "%"}, {"measurement": "inhibition", "setting": "[2]", "result": 100, "unit": "%"}, {"measurement": "inhibition", "setting": "[3]", "result": 100, "unit": "%"}, {"measurement": "inhibition", "setting": "[4]", "result": 72, "unit": "%"}, {"measurement": "inhibition", "setting": "[5]", "result": 40, "unit": "%"}, {"measurement": "inhibition", "setting": "[6]", "result": 100, "unit": "%"}, {"measurement": "inhibition", "setting": "[7]", "result": 94, "unit": "%"}, {"measurement": "inhibition", "setting": "[8]", "result": 100, "unit": "%"}, {"measurement": "inhibition", "setting": "[9]", "result": 100, "unit": "%"}, {"measurement": "inhibition", "setting": "[10]", "result": 81, "unit": "%"}, {"measurement": "inhibition", "setting": "[11]", "result": 100, "unit": "%"}, {"measurement": "inhibition", "setting": "[12]", "result": 91, "unit": "%"}]}]}
